This data set deals with Rattus norvegicus. The following applies: for LD50 / LC50: acute.
The mark [1] stands for this setting: subchronic, duration: 90 days, oral, gavage, Sprague-Dawley.

Several values for one entry are separate records, joined by “and”; a condition that tells them apart may be missing. Equal entries are not always repeated. A value given as a limit tells only on which side of the number the result lay.

In general, NOAEL refers to the highest dose or exposure tested at which no adverse effect was seen. The compound `Cc1cc(N(C)C)ccc1[P+](=O)[O-].[Na+]` yielded an NOAEL (reproduction developmental, duration: 14 days, injection, subcutaneous, F, Wistar) of 50 mg/kg-day.
As a reminder, the LD50 is the dose at which mortality reaches 50%. Low values mean a more toxic substance, high ones a less toxic substance. As to `CCCCCCCCCCCCOCCOS(=O)(=O)[O-].[Na+]`, the LD50 (oral) is 1600 mg/kg.
For the compound `CCN(CC)c1ccc2c(c1)Oc1cc(C)c(Nc3ccc(C)cc3C)cc1C21OC(=O)c2ccccc21` (configuration not stated), the 50% lethal dose (LD50) was more than 2000 mg/kg (dermal, semiocclusive, Sprague-Dawley) and more than 10000 mg/kg (oral, gavage, Sprague-Dawley).
`CCN(CC)c1ccc2c(c1)Oc1cc(C)c(Nc3ccccc3)cc1C21OC(=O)c2ccccc21` (configuration not stated) displayed an LD50 (oral, gavage, Sprague-Dawley) of more than 2000 mg/kg.
Where the note is “oral, gavage”, `CC(O)CN(CCN(CC(C)O)CC(C)O)CC(C)O` (configuration not stated) [1,1',1'',1'''-(Ethylenedinitrilo)tetrakis(2-propanol)] showed an LD50 of 11200 mg/kg. In addition, under “subchronic, duration: 3 months, oral, diet, Harlan”, the NOAEL is ≥ 600 mg/kg-day and ≤ 900 mg/kg-day.
As usually defined, the LOAEL is the lowest dose or exposure tested at which an adverse effect was seen. Regarding `Clc1cccc(Cl)c1` [1,3-Dichlorobenzene], the median lethal dose (LD50) (oral, gavage, Sprague-Dawley) is 1200 mg/kg and 1100 mg/kg and 1000 mg/kg. Further, the NOAEL runs as follows: (reproduction developmental, duration: 10 days, oral, gavage, F, Sprague-Dawley) 200 mg/kg-day; (reproduction developmental, duration: 10 days, oral, gavage, Sprague-Dawley, generation: F1) 200 mg/kg-day; (reproduction developmental, duration: 90 days, oral, gavage, Sprague-Dawley, generation: F0) 147 mg/kg-day; under setting [1], 37 mg/kg-day. This compound gave an LOAEL under setting [1] of 147 mg/kg-day.
As to `OCCN1CCNCC1` [1-Piperazineethanol], the 50% lethal dose (LD50) (oral, gavage) is 2000 mg/kg. In addition, the no observed adverse effect level (NOAEL) (short-term, duration: 7 days, oral, diet, F, Wistar) turned out to be 1610 mg/kg-day and the NOAEL (short-term, duration: 7 days, oral, diet, M, Wistar) came to 3720 mg/kg-day.
As to `CC(C)(C)c1ccc(O)c(C(C)(C)C)c1` [2,4-Di-tert-butylphenol], the LD50 (oral, gavage, albino) was 1500 mg/kg and 1300 mg/kg and 2100 mg/kg.
For the compound `CCN(CC#N)c1cccc(C)c1` [2-(Ethyl(3-methylphenyl)amino)acetonitrile], the NOAEL stood at 150 mg/kg-day (developmental, duration: 38 days, oral, gavage, Sprague-Dawley); 25 mg/kg-day (reproduction developmental, duration: 38 days, oral, gavage, Sprague-Dawley, generation: F0); 150 mg/kg-day (reproduction developmental, duration: 38 days, oral, gavage, Sprague-Dawley, generation: F1).
For the compound `CC(CN)CCCN` (configuration not stated) [2-Methylpentanediamine], the LC50 (inhalation, CRL:CD BR) is 4.1 µg/mL and 2.9 µg/mL. For the same compound, the LD50 (oral, gavage, Crl:CD(SD)) was found to be 1690 mg/kg. The NOAEL reads like this: (short-term, duration: 28 days, oral, diet, F, CRL:CD BR) 3000 ppm; (short-term, duration: 28 days, oral, diet, M, CRL:CD BR) 10000 ppm.
For the setting “oral, gavage, Sprague-Dawley”, `CCN(CC)c1ccc(C(=O)c2ccccc2C(=O)O)c(O)c1` [2-[4-(Diethylamino)-2-hydroxybenzoyl]benzoic acid] gave an LD50 of more than 5000 mg/kg.
`CC(C)(c1ccccc1)c1ccc(O)cc1` [4-Cumylphenol]: the LD50 stood at 1770 mg/kg (oral, Sprague-Dawley) and 1770 mg/kg (oral, gavage, Sprague-Dawley).
As to `COc1ccc(O)cc1` [4-Methoxyphenol], the NOAEL was found to be 40 mg/kg-day (developmental, dermal) and 40 mg/kg-day (reproduction developmental, dermal, F).
Where the note is “oral, gavage, Sprague-Dawley”, `CCCCCCC1C=CC(CCCCCCCC(=O)O)CC1C(=O)O` (configuration not stated) [5(6)-Carboxy-4-hexyl-2-cyclohexene-1-octanoic acid] registered an LD50 of 6180 mg/kg.
In turn, `O=c1c2ccccc2[nH]c2cc3c(=O)c4ccccc4[nH]c3cc12` [5,12-Dihydroquino[2,3-b]acridine-7,14-dione] displayed an LC50 (inhalation, Crl:CD(SD)) not below 3.1 µg/mL. Also, the LD50 (oral, gavage, albino) was not below 7500 mg/kg.
Turning to `CCCCCCCC/C=C\CCCCCCCC#N` [(Z)-9-Octadecenenitrile], the LD50 (oral, gavage, Sprague-Dawley) was more than 5000 mg/kg.
As for `CCCCCCCC/C=C\CCCCCCCCN` [(Z)-9-Octadecenylamine], the 50% lethal dose (LD50) (oral, gavage, Sprague-Dawley) is 1180 mg/kg and 1690 mg/kg.
Regarding `CCCC` [Butane], under “reproduction developmental, inhalation, Sprague-Dawley”, the NOAEL is 21400 mg/m3.
In the case of `O=C(Cl)C(Cl)Cl` [Dichloroacetyl chloride], under “oral”, the LD50 was 2460 mg/kg. For the setting “subchronic, duration: 30 days, inhalation, Sprague-Dawley”, this compound returned an NOAEL of 6.03 mg/m3.
In the case of `COC` [Dimethyl ether], under “inhalation, Sprague-Dawley”, the LC50 was 309000 mg/m3.
For `CC(COCC(C)OC(=O)c1ccccc1)OC(=O)c1ccccc1` (configuration not stated) [Dipropylene glycol, dibenzoate], the LD50 is, setting by setting: (dermal, Sprague-Dawley) more than 2000 mg/kg; (oral, Sprague-Dawley) 5070 mg/kg and 3300 mg/kg and 3910 mg/kg. Further, the NOAEL runs as follows: (developmental, duration: 13 days, oral, gavage, Sprague-Dawley) 500 mg/kg-day and 250 mg/kg-day; (reproduction developmental, duration: 38 weeks, oral, diet, Sprague-Dawley, generation: F0) 10000 ppm; (reproduction developmental, duration: 38 weeks, oral, diet, Sprague-Dawley, generation: F1) 10000 ppm; (reproduction developmental, duration: 13 days, oral, gavage, F, Sprague-Dawley) 1000 mg/kg-day; (subchronic, duration: 13 weeks, oral, diet) 1000 mg/kg-day.
Take `C1CCCNCC1` [Hexamethyleneimine]: the LD50 (oral, gavage, Sprague-Dawley) is 9.6 mg/kg and ≥ 8 mg/kg and ≤ 11.4 mg/kg.
Consider `CS(=O)(=O)O` [Methanesulfonic acid], for which the LD50 (oral) was ≥ 200 mg/kg and ≤ 400 mg/kg.

Values taken from EPA's ToxValDB 9.5.
